Results taken from patent US20140243401A1, “METHODS OF SCREENING COMPOUNDS THAT ARE CYTOTOXIC TO TUMOR CELLS AND METHODS OF TREATING TUMOR CELLS USING SUCH COMPOUND” (The Johns Hopkins University, priority 2010, published 2014).
Values after ≈ are worked out from the molar mass of the structure shown.

Key:
mitochondrial FAS = assay: 14C-malonate incorporation into lipids of mitochondria isolated from MCF7 cells; format: biochemical, human; conditions: FIG. 2, vs vehicle
Protocol: Mammalian mitochondrial FAS activity may be determined in a variety of ways. For example, [14C]malonate may be added to isolated mitochondria, fatty acids are extracted, and then radioactivity is tested. (See Zhang et al., J. Bio. Chem. 278(41): 40067-40074, 2003; Mikolajczyk, J. and Brody, S., Eur. J. Biochem. 187: 431-437, 1990). The mitochondria are purified using methods known in the art. (See Qiagen's Qproteome Mitochondria Isolation Kit; Methods in Enzymology, Vol. 10, Chapter 11, 1967). To test the inhibition of mmFAS activity, a test compound is added to the reaction mixture. Therefore, a test compound may be screened according the methods described herein as follows: (i) isolating mitochondria; (ii) incubating mitochondria with [14C]malonate with and without a test compound; and (iii) determining the quantity of lipids and/or fatty acids produced. By comparing the amount of product in the presence of the test compound to the amount in its absence, the degree of inhibition can be determined.
Mitochondria from MCF7 cells were prepared following manufacturer's protocol (Mitochondria Isolation Kit, Sigma, Saint Louis, Mo.). Rat liver mitochondria were isolated by homogenization with a tissue homogenizer in H-medium (220 mM mannitol, 70 mM sucrose, 2 mM HEPES, and 0.5 g/L of fatty acid free bovine serum albumin, pH 7.4). […]

[1] = tested on: AMP-activated protein kinase (AMPK); assay: AMPK activation (pAMPK Western blot) in SKOV3 cells; format: cell-based, human; conditions: over time, FIG. 8
Source text: Another indicator of cellular energy status and metabolic compromise is the activity on the cellular kinase AMP-activated protein kinase (AMPK). AMPK is a master energy sensor. AMPK regulates both enzyme activities and gene expression. When energy levels are low, and ATP levels fall with the concomitant rise in […] levels, AMPK is activated and phosphorylated. When energy levels are surfeit, AMPK is inactivated and not phosphorylated. Thus, AMPK controls metabolic fluxes between anabolic and catabolic states.
We determined the ability of C31 or Riv7d to cause the activation of AMPK in a variety of cancer cells in vitro. SKOV3 cells were cultured in DMEM containing 5 mM glucose medium with 10% fetal calf serum, 0.01 mg/ml insulin and 1% penicillin/streptomycin. Antibodies to pAMPK and AMPK were obtained from Cell Signaling. Cells were grown in 6-well plates at 5×10^4 per well and incubated overnight. Following drug treatment, the cells were harvested in Laemmli buffer and boiled for 5 minutes. Proteins were separated on a 4-15% SDS-PAGE gradient gel and transferred to a nitrocellulose membrane.

MCF7 cells = assay: 14C-acetate incorporation into lipids in MCF7 cells; format: cell-based, human; conditions: for IC50: Homo sapiens, MCF7 cells
Protocol: (§1) MCF7 human breast cancer cells (a cell line which overexpresses FAS) were cultured in DMEM containing 5 mM glucose medium with 10% fetal calf serum, 0.01 mg/ml insulin and 1% penicillin/streptomycin. For measurement of fatty acid synthesis cells were cultured in 24-well plates at 5×10^4 per well and incubated overnight. Fatty acid synthesis was assayed by a 2 h pulse of [U^14C]acetate, 1 μCi/well, followed by Folch extraction and scintillation counting. Test compounds were added with the addition of drugs as described. Controls were treated with DMSO alone.
as §1, with “cells” for “cells (a cell line which overexpresses FAS)”, “containing 1 mM or” for “containing”, “glucose in the” for “glucose”, “penicillin/streptomycin. The cells were grown in two oxygen conditions, normoxia (21% 02) or hypoxia (1% 02).” for “penicillin/streptomycin.”, “counting” for “counting. Test compounds were added”

[2] = tested on: Human colon cancer cell line; assay: XTT cytotoxicity assay, human colon cancer cell line; format: cell-based; conditions: 1 human colon cancer cell line, read-out: LC50 (the source's name)
Protocol: Cytotoxicity can be easily measured using XTT assays, which provide an indication of mitochondrial activity. The XTT assay is a non-radioactive alternative for the [^51Cr] release cytotoxicity assay. XTT is a tetrazolium salt that is reduced to a formazan dye only by metabolically active, viable cells. The reduction of XTT is measured spectrophotometrically as OD490-OD650. Thus, cells that are actively metabolizing will form reaction product when subjected to XTT measurement.
For this experiment, cells were cultured under standard culture conditions. MCF7 human breast cancer cells were cultured in DMEM containing 5 mM glucose medium with 10% fetal calf serum, 0.01 mg/ml insulin and 1% penicillin/streptomycin. To measure the cytotoxicity of specific compounds against cancer cells, 9×10^3 MCF7 cells were plated per well in 96-well plates. Following overnight culture, the compounds, dissolved in DMSO, were added to the wells in 1 μl volume at specified concentrations. Vehicle controls were run for each experiment. Each condition was run in triplicate. […] Plates were read at OD490 on a PerkinElmer Victor 1420. […]
Using the XTT assay, LC50 values for C31 were determined for numerous human cancer cell lines and human hepatocytes, as shown in the following table: […]

## CCCCCCCCC1(C)SC(=O)C=C1OCC(=O)Nc1ccc(Cl)cc1 (stereo not drawn) [Compound C31]
Mitochondrial FAS
  effect on 14C-malonate incorporation into lipids of isolated mitochondria: inhibited the incorporation of malonate into lipids in a dose-dependent manner
[1]
  AMPK activation (pAMPK levels, Western blot): rapid activation of AMPK
MCF7 cells; first experiment, FIG. 1
  IC50: 17 µg/mL
MCF7 cells; second experiment
  IC50: 13.6 µM
MCF7 cells; MCF7, 1 mM or 5 mM glucose, 21% or 1% O2, FIG. 14
  inhibition of FAS activity (14C-acetate incorporation): increasingly effective at inhibiting FAS activity
[2]
  CC50: 4 µg/mL (≈ 9.76 µM)
